# Laboratory results taken from patent publication US20080299109A1, “MECHANISM OF ASTRICYTE-NEURON SIGNALING” (Korea Institute of Science and Technology, priority 2007, published 2008).
# pIC50: −log10 of the molar value.
# What was measured:
# [1] = system: cultured wild-type mouse astrocytes; assay: Fura-2 intracellular Ca2+ imaging in cultured wild-type astrocytes; type: cell-based; settings: 30 μM TFLLR; for effect on TFLLR-induced Ca^2+ response: 1 μM BMS200261, 1 μM thapsigargin, 50 μM BAPTA-AM 30 min, 2 μM U-73122 10 min; for level of astrocytic intracellular Ca^2+ (Fura-2 fluorescence ratio): 10 μM bradykinin, 50 μM 2-methyl-thio-ATP, 10 μM ATP, 30 nM thrombin
# Method: Cultured astrocytes were prepared from P0-P3 postnatal mice obtained from KIST SPF. The cerebral cortex was dissected free of adherent meninges, minced, and dissociated into single cell suspension by trituration through a Pasteur pipette. All procedures involving the use of animals were reviewed and approved by the Emory University IACUC. Dissociated cells were plated onto either 12 mm glass coverslips or 6 well plates coated with 0.1 mg/ml poly-D-lysine. Cells were grown in a DMEM media (Gibco, cat# 11960-044) supplemented with 25 mM glucose, 10% heat-inactivated horse serum, and 10% heat-inactivated fetal bovine serum, 2 mM glutamine, and 1000 units/ml penicillin-streptomycin. Cultures were maintained at 37° C. in a humidified 5% CO2-containing atmosphere. […] In some experiments, the culture media was replaced 24 hours after plating with DMEM with all added components except glutamine, and cultures were maintained for 4 days before experimentation in glutamine-free media.
# Cultured astrocytes were incubated with 5 µM Fura2-AM in […] pluronic acid (Molecular Probes) for 30 min at room temperature, and subsequently transferred to a microscope stage for imaging. The external solution contained 150 mM NaCl, 10 mM HEPES, 3 mM KCl, 2 mM CaCl2, 2 mM MgCl2, and 5.5 mM glucose, and the pH was adjusted to pH 7.3 and osmolarity to 325 mOsm. Intensity images of a 510 nm wavelength were taken at 340 nm and 380 nm excitation wavelengths using either a Micromax Camera (Princeton) or an intensified video camera (PTI), and the two resulting images were used for ratio calculations using Axon Imaging Workbench version 2.2.1.
# cultured astrocytes = assay: 3H-glutamate release assay in cultured wild-type astrocytes; type: cell-based, mouse; settings: 50 μM BAPTA-AM 30 min; 50 μM trans-PDC present or absent
# Method: Astrocytes obtained in the above Example 1.1 were loaded with 0.5 μM L-3H-glutamate for 60 min by adding […] of 1 mCi/ml L-3H-glutamate stock solution to 2 ml of DMEM culture media.
# Cells were washed with an external solution 3 times.
# Agonists (TFLLR 30 μM) were added to the external solution for 6 min and the experiment was terminated by collection of the solution. Each experimental run included a control condition in which no agonist was added. Six replicates were obtained for each drug condition. For analysis, the average radioactivity count was obtained from 6 replicates for each condition and this average was compared to the average of the control condition.
# Cells were washed with an external solution and subsequently TFLLR (30 μM) was added for 6 min. […] In the top panel, the thick boxes represent cells in culture media and the white boxes represent cells in external solution.
# [2] = system: PAR1−/− cortical neurons on wild-type astrocyte monolayer; assay: PAR1−/− cortical neurons co-cultured on wild-type astrocytes: dendritic Ca2+ and voltage clamp; type: cell-based, mouse; settings: 300 μM TFLLR pressure-applied to astrocytes; 50 μM NMDA
# Method: For an astrocyte-neuron co-culture, a monolayer of wild-type astrocytes was grown to 70-100% confluency (7-14 days in culture). Subsequently, the cortex from a P0 to P5 PAR1−/− mouse (Connolly et al., 1996) was dissected free of meninges and digested for 30 min in 1 mg/ml trypsin at 37° C. PAR1−/− mice were >99% C57B1/6 (>7 backcrossings), and wild-type mice were from a colony derived from PAR1−/− littermates.
# All experiments were done within 3 generations of establishing the homozygous colony. The cortical cells were plated at low density on top of the monolayer of wild-type astrocytes obtained in above Example 1.1. Neurons were used for Ca^2+ imaging after 1-5 days in culture.
# (§1) Whole-cell perforated-patch recording from cultured cortical neurons or HEK cells under voltage clamp (holding potential −60 mV) was made with an Axopatch 200B amplifier (Axon Instruments, Union City, Calif.). The recording chamber was continually perfused with a recording solution comprised of 150 mM NaCl, 3 mM KCl, 2 mM CaCl2, 5.5 mM glucose, and 10 mM HEPES (pH 7.4 by NaOH; osmolality adjusted to 315-320 mOsm with sucrose). Recording electrodes (4-7 MΩ) were filled with (in mM) 150 mM CsMeSO4, 10 mM NaCl, 0.5 CaCl2, 10 mM HEPES, and 25-50 μg/ml gramicidin D (pH adjusted to 7.3 with CsOH and osmolality adjusted to 310 mOsm with sucrose). It took 20-30 min to achieve acceptable perforation with series resistance ranging from 30-60 MΩ. All electrophysiological data from cultured neurons cells in this study were collected at room temperature (23-26° C.).
# After a 20 min recovery, the bath perfusion was stopped and TFLLR was applied by brief (<1 sec) pressure ejection onto the astrocyte hosting the dye-loaded neuron in a static bath condition. Changes in fluorescence were monitored in a number of dendritic processes (schematized in FIGS. 8a and 8b).
# GluR1(L497Y) = molecular target: T1, GluR1(L497Y) (Rattus norvegicus, UniProt P19490, L497Y); assay: Glutamate activation of GluR1(L497Y) in transfected HEK cells; type: cell-based
# T1 construct: expressed in transfected cells; host or cells: HEK 293 cells (ATCC1573)
# Method: (§2) HEK 293 cells were transfected with a 1:3.5 ratio of GFP and GluR1(L497Y) using the calcium phosphate method using effectence for 6-8 hours, after which the media was replaced and supplemented with 1 mM kynurenic acid and 10 μM N-(4-hydroxyphenylpropanoyl) spermine or 10 μM CNQX.
# as §1
# PAR1−/− mouse astrocytes = assay: Fura-2 intracellular Ca2+ imaging in cultured PAR1−/− astrocytes; type: cell-based; settings: 30 μM TFLLR, 30 nM thrombin, 10 μM ATP positive control
# Method: Cultured astrocytes were prepared from P0-P3 postnatal mice obtained from KIST SPF. The cerebral cortex was dissected free of adherent meninges, minced, and dissociated into single cell suspension by trituration through a Pasteur pipette. All procedures involving the use of animals were reviewed and approved by the Emory University IACUC. Dissociated cells were plated onto either 12 mm glass coverslips or 6 well plates coated with 0.1 mg/ml poly-D-lysine. Cells were grown in a DMEM media (Gibco, cat# 11960-044) supplemented with 25 mM glucose, 10% heat-inactivated horse serum, and 10% heat-inactivated fetal bovine serum, 2 mM glutamine, and 1000 units/ml penicillin-streptomycin. Cultures were maintained at 37° C. in a humidified 5% CO2-containing atmosphere. Astrocyte cultures prepared in this way were previously determined by GFAP (glial fibrillary acidic protein) staining to be greater than 95% astrocytes (Nicole et al., 2005). In some experiments, the culture media was replaced 24 hours after plating with DMEM with all added components except glutamine, and cultures were maintained for 4 days before experimentation in glutamine-free media.
# Cultured astrocytes were incubated with 5 µM Fura2-AM in […] pluronic acid (Molecular Probes) for 30 min at room temperature, and subsequently transferred to a microscope stage for imaging. […]
# wild-type astrocytes = assay: Sniffer-patch detection of glutamate release, GluR1(L497Y)-transfected HEK cells on wild-type astrocytes; type: cell-based, mouse
# Method: HEK 293 cells (ATCC1573) were plated onto 12 mm glass coverslips coated with 5-10 ug/ml poly-D-lysine and grown in a DMEM media (Gibco, cat# 11960-044) supplemented with 25 mM glucose, 10% heat-inactivated horse serum, and 10% heat-inactivated fetal bovine serum, 2 mM glutamine, and 1000 units/ml penicillin-streptomycin (Banke & Traynelis, 2000; Traynelis & Wahl, 1996). The obtained cultures were maintained at 37° C. in a humidified 5% CO2-containing atmosphere.
# as §2, with “CNQX. The transfected HEK cells were subsequently trypsinized and replated onto astrocyte feeder layers derived from either wild-type or PAR1−/− mice 24 hours post-transfection, and recordings performed 24 hours after replating.” for “CNQX.”
# as §1
# Thus, this technique provides millisecond time resolution for the detection of micromolar levels of glutamate released from astrocytes.
# GluR1(L497Y)-transfected HEK cells were directly plated onto an astrocyte monolayer, and subsequently the whole cell HEK current response under voltage clamp during a brief 0.2 sec application of the PAR1 activator TFLLR (500 μM), ATP (300 μM), or bradykinin (180 μM), respectively, from a pressurized pipette was recorded (FIGS. 5a, and 5b).
# Concentration(t)=EC50[response(t)/(100−response(t))]^(1/n) (Formula 1)
# CA1 pyramidal neurons = assay: Ca2+ dye imaging of CA1 pyramidal neurons in hippocampal slices; type: cell-based, rat; settings: thrombin 30 nM, TFLLR 30 μM, trans-ACPD 100 μM, (S)-3,5-dihydroxyphenylglycine 30 μM
# Method: Young rats (Sprague-Dawley, age P15-P20) or mice (C57/B16, age P14-19) were deeply anesthetized with isoflurane and decapitated. The brain was rapidly removed and submerged in an ice-cold oxygenated artificial cerebrospinal fluid (ACSF) comprised of 130 mM NaCl, 24 mM NaHCO3, 3.5 mM KCl, 1.25 mM NaH2PO4, 1 mM CaCl2,3 mM MgCl2, and 10 mM glucose saturated with 95% O2/5% CO2, at pH 7.4.
# The external solution contained 1 μM TTX. Throughout the experiments, −5 mV voltage steps (15 ms duration) were applied at 30 sec intervals from a holding potential of −70 mV to continuously monitor the holding current, series resistance, and membrane input resistance. After entering whole-cell mode, the CA1 pyramidal cells in slices were maintained for 20 min to allow for dye filling before image acquisition using a Princeton Micromax camera.
# After the baseline period, TFLLR (30-100 μM) was applied, and images were acquired every 3 sec with a 25 ms exposure to 450-490 nm light for each image. Ca^2+-dependent fluorescence intensity (520 nm) was measured in cell bodies and processes by using Axon Imaging Workbench (v2.2.1) and expressed as ratio image of (F-Fo)/Fo, where Fo is the fluorescence intensity before drug treatment.
# cultured neurons = assay: Sniffer-patch glutamate release from cultured neurons; type: cell-based; settings: 10 μM CNQX, 530 mOsm
# Method: To verify this prediction, effects of a hyperosmotic solution on the glutamate-release from cultured neurons and astrocytes were evaluated and are shown in FIGS. 7a to 7c.
# The detection is abolished by the treatment of 10 μM CNQX.
# glutamate transporters = settings: read-out: IC50 glutamate uptake block; Mitrovic & Johnston, 1994; cited from earlier work
# T1 sequence (P19490 19-907 L497Y): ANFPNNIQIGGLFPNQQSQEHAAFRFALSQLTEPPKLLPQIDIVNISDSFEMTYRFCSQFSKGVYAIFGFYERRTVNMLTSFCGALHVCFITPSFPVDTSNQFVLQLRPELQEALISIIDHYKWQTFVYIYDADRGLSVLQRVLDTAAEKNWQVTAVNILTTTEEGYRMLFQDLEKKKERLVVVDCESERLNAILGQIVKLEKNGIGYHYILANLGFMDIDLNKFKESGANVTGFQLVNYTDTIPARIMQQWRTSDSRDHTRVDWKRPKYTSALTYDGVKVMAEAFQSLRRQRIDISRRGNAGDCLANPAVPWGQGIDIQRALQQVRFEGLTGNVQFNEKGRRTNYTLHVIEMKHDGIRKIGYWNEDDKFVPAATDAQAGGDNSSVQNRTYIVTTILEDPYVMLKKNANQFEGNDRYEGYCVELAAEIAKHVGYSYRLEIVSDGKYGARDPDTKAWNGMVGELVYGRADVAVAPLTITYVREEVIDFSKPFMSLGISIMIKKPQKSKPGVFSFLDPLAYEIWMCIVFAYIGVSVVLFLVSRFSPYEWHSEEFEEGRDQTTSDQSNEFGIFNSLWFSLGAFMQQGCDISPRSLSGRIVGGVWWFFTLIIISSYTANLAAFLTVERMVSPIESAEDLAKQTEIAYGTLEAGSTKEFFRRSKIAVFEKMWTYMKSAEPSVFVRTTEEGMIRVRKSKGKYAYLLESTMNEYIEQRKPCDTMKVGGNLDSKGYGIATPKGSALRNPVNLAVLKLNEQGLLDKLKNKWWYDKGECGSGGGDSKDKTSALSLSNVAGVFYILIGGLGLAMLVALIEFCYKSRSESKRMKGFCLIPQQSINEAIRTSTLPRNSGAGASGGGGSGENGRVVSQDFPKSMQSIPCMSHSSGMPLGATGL
compound,measurement,setting,value
COc1ccc2c(c1)CC[C@@H]1[C@@H]2CC[C@]2(C)[C@@H](NCCCCCCN3C(=O)C=CC3=O)CC[C@@H]12 [U-73122],effect on TFLLR-induced Ca^2+ response,[1],similarly blocked
"CC(=O)OCOC(=O)CN(CC(=O)OCOC(C)=O)c1ccccc1OCCOc1ccccc1N(CC(=O)OCOC(C)=O)CC(=O)OCOC(C)=O [BAPTA-AM, 1,2-bis(2-aminophenoxy)ethane-N,N,N′,N′-tetra-acetic acid acetoxymethyl ester]",effect on TFLLR-induced glutamate release,cultured astrocytes,blocked
"CN[C@H](CC(=O)O)C(=O)O [NMDA, N-methyl-D-aspartic acid]",intra-neuronal Ca^2+ in dendrites (Oregon Green BAPTA-2 fluorescence),[2],saturating response
N[C@@H](CCC(=O)O)C(=O)O [glutamate],Hill slope,GluR1(L497Y),1.3
Nc1ncnc2c1ncn2[C@@H]1O[C@H](COP(=O)(O)OP(=O)(O)OP(=O)(O)O)[C@@H](O)[C@H]1O [ATP],intracellular Ca^2+ concentration in PAR1−/− astrocytes,PAR1−/− mouse astrocytes,still responded
same,level of astrocytic intracellular Ca^2+ (Fura-2 fluorescence ratio),[1],increase
same,inward current in adjacent GluR1(L497Y)-transfected HEK cell,"wild-type astrocytes; brief pressure application 500 μM TFLLR, 300 μM ATP, 180 μM bradykinin",elicited an inward current
same,peak glutamate concentration,"wild-type astrocytes; wild-type astrocytes, converted from current by Formula 1",~5.9 µM
trans-Cinnamoyl-F(f)-F(Gn)L-Arg-Arg-NH2 [BMS 200261],effect on TFLLR-induced Ca^2+ response,[1],reversibly and completely antagonized
C/C=C(/C)C(=O)O[C@H]1C(C)=C2[C@H]([C@@H]1OC(=O)CCCCCCC)[C@@](C)(OC(C)=O)C[C@H](OC(=O)CCC)[C@@]1(O)[C@H]2OC(=O)[C@@]1(C)O [thapsigargin],effect on TFLLR-induced Ca^2+ response,[1],blocked
CSc1nc(N)c2ncn([C@@H]3O[C@H](COP(=O)(O)OP(=O)(O)OP(=O)(O)O)[C@@H](O)[C@H]3O)c2n1 [2-methyl-thio-ATP],level of astrocytic intracellular Ca^2+ (Fura-2 fluorescence ratio),[1],increase
"N[C@H](C(=O)O)c1cc(O)cc(O)c1 [(S)-3,5-dihydroxyphenylglycine]",somatic fluorescence of Ca^2+-sensitive dyes in CA1 pyramidal neurons,CA1 pyramidal neurons,strong increases
N#Cc1cc2[nH]c(=O)c(=O)[nH]c2cc1[N+](=O)[O-] [CNQX],effect on TFLLR-evoked inward current in GluR1(L497Y) HEK cell,wild-type astrocytes; 10 μM CNQX,reversibly inhibits
same,"effect on TFLLR-evoked inward currents, glutamine-free medium",wild-type astrocytes; glutamine-free medium,completely abolished
same,effect on detection of hyperosmotic-solution evoked neuronal glutamate release,cultured neurons,abolished
"O=C(O)[C@H]1CN[C@H](C(=O)O)C1 [trans-PDC, L-transpyrrolidine-2,4-dicarboxylic acid]",pIC50,glutamate transporters,5.10 to 5.40
same,effect on TFLLR-induced glutamate release,cultured astrocytes,indistinguishable
